Measured values reported in patent EP0906100B1, “USE OF 5-HT 1A? RECEPTOR ANTAGONISTS FOR THE TREATMENT OF URINARY INCONTINENCE” (RECORDATI S.A., priority 1996, dated 1997).

Columns and labels:
[1] = tested on: rhythmic bladder voiding contractions; assay: Volume-induced rhythmic bladder voiding contractions in anaesthetized rats; assay type: in vivo; settings: for AMPLITUDE mm Hg before treatment / FREQUENCY No. contr./15 min before treatment: baseline; for AMPLITUDE mm Hg before treatment / AMPLITUDE mm Hg after treatment: animals with frequency reduction <50%; for AMPLITUDE mm Hg before treatment / FREQUENCY No. contr./15 min before treatment / AMPLITUDE mm Hg after treatment / FREQUENCY No. contr./15 min after treatment: mean±S.E.; for BLADDER CONTRACTIONS Disappearance time: duration of bladder quiescence, mean (S.E. in next cell)
Description: Female Sprague Dawley rats weighing 225-275 g (Crl: CD° BR, Charles River Italia) were used. The animals were housed with free access to food and water and were maintained on a forced 12 h alternating light-dark cycle at 22-24°C for at least one week, except during the experiment. The activity on the rhythmic bladder voiding contractions was evaluated according to the method of Dray (J. Pharmcol. Methods, 13:157, 1985), with some modifications as in Guarneri (Phannacol. Res., 27:173, 1993). […] The catheter was tied in place with a ligature around the external urethral orifice and was connected with conventional pressure transducers (Statham P23 ID/P23 XL). […] The bladder was then filled via the recording catheter by incremental volumes of warm (37°C) saline until reflex bladder voiding contractions occurred (usually 0.8-1.5 ml). Two parameters were recorded from the cystometrogram: the frequency of voiding contractions, calculated by counting the number of peaks/15 min of observation, and the mean amplitude of these contractions (mean height of the peaks in mmHg) in the same time period. For intravenous (i. v. ) injection of bioactive compounds, a PE 50 polyethylene tubing filled with physiological saline was inserted into the jugular vein.
Bioactivity was assessed in individual animals (using 6-10 rats per dose), by recording the number and height of the peaks for 15 min after drug injection and comparing them with those previously recorded for 15 min after the intravenous administration of vehicle alone. […] The statistical significance of changes in frequency and amplitude before and after treatment was assessed by Student's t test for paired data. Changes showing a probability P<0.01 were considered significant.
An all-or-none criterion was also used to compare bioactivity in terms of ED50 values. Rats showing a treatment-related change of ≥30% relative to the basal value were considered to be positive. Quantal dose-response curves and ED50 values were evaluated by the method of Bliss (J. Pharm. Pharmacol., 11:192, 1938).
The rapid distension of the urinary bladder in urethane-anaesthetized rats produced a series of rhythmic bladder voiding contractions whose characteristics have been described (Maggie et al., Brain Res., 380, 83, 1986; Maggi, et al., J. Pharmacol. Exp. Ther., 230, 500, 1984). The frequency of these contractions is related to the sensory afferent arm of reflex micturition and to the integrity of the micturition centre, while their amplitude is a property of the efferent arm of the reflex (Maggi et al., J. Pharmacol. Meth., 15, 157, 1986; Maggi et al., Brain Res.. 415, 1, 1987; Maggi et al., Naun. Schmied. Arch. Pharmacol., 332, 276, 1986; Maggi et al., J. Urol., 136, 696, 1986).

[2] = tested on: cystometric parameters (bladder volume capacity, micturition pressure); assay: Cystometric parameters (BVC, MP) in the conscious rat; assay type: in vivo, rats; settings: for BVC before treatment / MP before treatment: baseline; for BVC before treatment / MP before treatment / BVC after treatment / MP after treatment: mean±S.E.; for BVC % change / MP % change / BVC after treatment / MP after treatment: 15 min after injection
Description: Male Sprague Dawley rats (Crl: CD° BR) weighing 250-350 g were used. The animals were housed with free access to food and water and maintained on a forced 12 h alternating light-dark cycle at 22-24°C for at least one week, except during performance of the experiment.
An approximately 10 mm long midline incision was made in the shaved and cleaned abdominal wall. The urinary bladder was gently freed from adhering tissues, emptied, and then cannulated, via an incision at the dome, with a polyethylene cannula (Portex PP30), which was permanently sutured with silk thread. The cannula was exteriorized through a subcutaneous tunnel in the retroscapular area, where it was connected with a plastic adapter to avoid the risk of removal by the animal. For intravenous (i.v.) injection of test compounds, a PE 50 polyethylene tubing filled with physiological saline was inserted into the jugular vein and exteriorized in the retroscapular area.
Since cystometrographic parameters have been reported to be influenced by the time elapsed after catheter implantation […].
On the day of the experiment, the rats were placed in Bollman's cages; after a stabilization period of 20 min, the free tip of the bladder catheter was connected through a T-shaped tube to a pressure transducer (Bentley T 800/Marb P 82) and to a peristaltic pump (Gilson minipuls 2) for a continuous infusion, at the constant rate of 0.1 ml/min, of saline solution into the urinary bladder. The intraluminal pressure signal during infusion was continuously recorded on a polygraph (Battaglia Rangoni KO 380 with ADC1/T amplifier). Two urodynamic parameters were evaluated: bladder volume capacity (BVC) and micturition pressure (MP). BVC (in ml) is defined as the minimum volume infused after which detrusor contraction (followed by micturition) occurs. MP (in mmHg) is defined as the maximal intravesical pressure induced by the contraction of detrusor during micturition. Basal BVC and MP values were calculated as the means of the first two recorded cystometrograms. At this point, the infusion was interrupted and the test compounds were administered. Fifteen minutes after intravenous administration, or one hour after oral drug administration, two additional cystometrograms were recorded in each animal and the mean values of the two cystometrographic parameters were calculated.
The statistical significance of the differences in urodynamic parameter values was evaluated by Student's t test for paired data. Only changes showing a probability P<0.01 were considered to be significant.

For Cc1c(-c2ccccc2)oc2c(C(=O)OCCN3CCCCC3)cccc2c1=O [Flavoxate, flavoxate], the “AMPLITUDE mm Hg before treatment” value ([1]; 300 µg/kg i.v. group) was 25.9±1.3 mm Hg, the “FREQUENCY No. contr./15 min before treatment” value ([1]; 300 µg/kg i.v. group) was 9.2±1.2 No. contr./15 min and the “AMPLITUDE mm Hg after treatment” value ([1]; 300 µg/kg i.v.) was 24.1±1.8 mm Hg. For the same compound, the “BLADDER CONTRACTIONS Disappearance time” value ([1]; 300 µg/kg i.v.) was 1.70 min, the “FREQUENCY No. contr./15 min after treatment” value ([1]; 300 µg/kg i.v.) was 8.8±1.7 No. contr./15 min and the “AMPLITUDE mm Hg before treatment” value ([1]; 1000 µg/kg i.v. group) was 26.1±2.3 mm Hg. The “FREQUENCY No. contr./15 min before treatment” value ([1]; 1000 µg/kg i.v. group) was 10.1±0.7 No. contr./15 min, the “AMPLITUDE mm Hg after treatment” value ([1]; 1000 µg/kg i.v.) was 25.0±2.2 mm Hg and the “BLADDER CONTRACTIONS Disappearance time” value ([1]; 1000 µg/kg i.v.) was 3.04 min. The “FREQUENCY No. contr./15 min after treatment” value ([1]; 1000 µg/kg i.v.) was 8.6±0.9 No. contr./15 min, the “AMPLITUDE mm Hg before treatment” value ([1]; 3000 µg/kg i.v. group) was 18.9±0.9 mm Hg and the “FREQUENCY No. contr./15 min before treatment” value ([1]; 3000 µg/kg i.v. group) was 10.7±0.7 No. contr./15 min. For the same compound, the “AMPLITUDE mm Hg after treatment” value ([1]; 3000 µg/kg i.v.) was 16.6±1.2 mm Hg, the “BLADDER CONTRACTIONS Disappearance time” value ([1]; 3000 µg/kg i.v.) was 5.30 min and the “FREQUENCY No. contr./15 min after treatment” value ([1]; 3000 µg/kg i.v.) was 6.5±0.7 No. contr./15 min. The “AMPLITUDE mm Hg before treatment” value ([1]; 10000 µg/kg i.v. group) was 19.9±1.6 mm Hg, the “FREQUENCY No. contr./15 min before treatment” value ([1]; 10000 µg/kg i.v. group) was 11.3±0.8 No. contr./15 min and the “AMPLITUDE mm Hg after treatment” value ([1]; 10000 µg/kg i.v.) was 19.2±1.5 mm Hg. The “BLADDER CONTRACTIONS Disappearance time” value ([1]; 10000 µg/kg i.v.) was 8.25 min, the “BLADDER CONTRACTIONS Disappearance time” value ([1]; 10000 µg/kg i.v., listed as flavoxate) was 8.25 ± 1.90 min and the “FREQUENCY No. contr./15 min after treatment” value ([1]; 10000 µg/kg i.v.) was 5.5±0.6 No. contr./15 min. For the same compound, the ED (10 min disappearance of contractions) ([1]; Rattus norvegicus, iv, 10 min, extrapolated dose inducing 10 min of disappearance of the contractions, linear regression) was greater than 10 mg/kg, the ED50 ([1]; Rattus norvegicus, iv, read-out: ED50 FREQUENCY (and 95% confidence limits), i.v., quantal criterion (change ≥30% relative to basal value)) was 2.65 mg/kg and the BVC before treatment ([2]; 300 µg/kg i.v. group) was 0.76 ± 0.11 mL. The MP before treatment ([2]; 300 µg/kg i.v. group) was 89.2±10.7 mmHg, the BVC % change ([2]; 300 µg/kg i.v.) was “+14%” and the MP % change ([2]; 300 µg/kg i.v.) was “+7%”. The BVC after treatment ([2]; 300 µg/kg i.v.) was 0.87 ± 0.11 mL, the MP after treatment ([2]; 300 µg/kg i.v.) was 95.0±10.9 mmHg and the BVC before treatment ([2]; 1000 µg/kg i.v. group) was 0.88 ± 0.15 mL. The MP before treatment ([2]; 1000 µg/kg i.v. group) was 90.4±10.7 mmHg, the BVC % change ([2]; 1000 µg/kg i.v.) was “+26%” and the MP % change ([2]; 1000 µg/kg i.v.) was -12%. The BVC after treatment ([2]; 1000 µg/kg i.v.) was 1.11 ± 0.16 mL, the MP after treatment ([2]; 1000 µg/kg i.v.) was 80.1±11.1 mmHg and the BVC before treatment ([2]; 3000 µg/kg i.v. group) was 0.77 ± 0.08 mL. The MP before treatment ([2]; 3000 µg/kg i.v. group) was 72.6±9.3 mmHg, the BVC % change ([2]; 3000 µg/kg i.v.) was “+39%” and the MP % change ([2]; 3000 µg/kg i.v.) was “+4%”. The BVC after treatment ([2]; 3000 µg/kg i.v.) was 1.07 ± 0.12 mL, the MP after treatment ([2]; 3000 µg/kg i.v.) was 75.2±9.5 mmHg and the “effect on MP (in words)” value ([2]; conscious rats, i.v., NAN-190 up to the highest administrable dose of 300 µg/kg) was “inactive”.
